Reference: patent EP2966448B1, “METHOD FOR THE PREDICTION OR PROGNOSIS OF THE RESPONSE OF A HUMAN SUBJECT SUFFERING FROM CANCER TO TREATMENT WITH AN ANTAGONIST OF THE NK1 RECEPTOR” (priority 2013, dated 2014)
Like-named read-outs stand apart in the source and are kept apart here.

What was measured:
Leukemia B = assay: Inhibition of primary tumor cell cultures (48 hours) vs NK1 receptor immunostaining (Example 1); assay type: cell-based; conditions: Homo sapiens, 1 micromolar, read-out: Percentage of inhibition of cell cultures
Protocol: (§1) Cell cultures. To obtain tumor cells from human primary tumors we used the method described in De Bari et al. (De Bari et al. 2001). Briefly, small pieces of the tumors were digested into a hyaluronidase solution (Sigma-Aldrich, USA) at a concentration of 1 mg/ml during 15 minutes at 37°C, and then they were treated with 6 mg/ml of collagenase type IV (Invitrogen) during 2 hours at 37°C. Consecutively, cells were washed, and resuspended in the DMEM culture medium with high concentration of glucose (Dulbecco's Modified Eagle's Medium, Invitrogen) supplemented with 1% of antibiotics-antimycotics (Invitrogen) and with 1% of sodium pyruvate (Invitrogen), and the cells were seeded in culture slides at a concentration of 10.000 cells per square centimeter. When cells reached confluence, the adherent cells were separated using sterile trypsin at 0,5% (Invitrogen) and they were used among passages 3 and 9. For the assays shown next, tumor cells were seeded on slides at a concentration of 25.000 cells per well. A total of 6 wells containing the tumor cells were used as survival control. […] All the cultures were kept during 48 hours and later on recollected for their analysis.
(§2) Immunohistochemistry techniques. The presence of NK1 receptors was also analyzed using immunohistochemistry techniques. Briefly, a sample of each of the cultures of the cell lines used in the present invention, was centrifuged (5 minutes at 1.500 rpm) and the pellet obtained was dehydrated using increasing concentrations of ethanol and, finally, xylol. Then, said dehydrated samples were embedded in paraffin, creating a block of cells. Such paraffin blocks were cut with a microtome at 5 microns thickness, and were placed on microscope slides adequate to perform immunohistochemistry techniques. Consecutively, they were de-paraffinized by immersing them in xylol, to be finally hydrated using a solution containing decreasing concentrations of ethanol, and finally submerged them into water. […] After this, the samples were left to cool down at room temperature for 10 minutes. The endogenous peroxidase activity was blocked with 3% peroxide of hydrogen for 30 minutes at room temperature. After washing the samples with 0.05 M of Tris buffer, they were incubated with 10% non-immune pork serum at for 30 minutes at room temperature. To analyze the expression of NK1 receptors, the cellular samples were incubated in the presence of anti-NK1 antibodies (S8305, Sigma-Aldrich) diluted 1:1000, overnight at 4°C. Afterwards, the samples were washed in Tris buffer 0.05 M at room temperature. The next step was the addition of Envision System-HRP (Dako) reagents for 30 minutes at room temperature. Then, the samples were washed again in Tris buffer 0.05 M and the immunoreactivity was visualized through light microscopy with a chromogenic solution containing 3,3'-Diaminobenzidine (DAB+; Dako, USA). To differentiate the cell nuclei, they were slightly stained with hematoxylin. As negative control, it was used samples not incubated with the primary antibody anti-NK1, which was replaced by non-immune serum. All the samples were evaluated.
(§3) To value the immunostaining in each of the cases six cuts were performed to be analyzed by the immunohistochemistry technique. In each of the six cuts, it was counted cells in 20 fields (magnification 400x) using an Olympus microscope (model CX31). In each field it was counted the total number of cells and the number of cells presenting immunostaining, calculating afterwards the percentage of cells which presented immunostaining.

Breast carcinoma = assay: as above; assay type: cell-based; conditions: Homo sapiens, 1 micromolar, read-out: Percentage of inhibition of cell cultures
Protocol: as §1, §2, §3

[1] = tested on: Undifferentiated Pleomorphic Sarcoma (malignant fibrous histiocytoma grade 3); assay: Inhibition of primary tumor cell cultures vs Kras mutation (Example 2); assay type: cell-based, human; conditions: Homo sapiens, Cases with Kras mutated; 100 micromolar; read-out: Percentage of inhibition of cell cultures
Protocol: as §1
(§4) In each case the presence or not of mutations in K-ras gene was determined.
(§5) To determine the existence of mutations in the K-ras gene DNA from cancer tumor cells was extracted from samples obtained from the different cancer tumor cells, using DNA extraction kits from Takara (Madison, WI, US) or Ambion (Huntingdon, Cambridgeshire, United Kingdom), following the manufacturer's instructions, and as it has been previously published (Di Fiore F, et al. 2007). Consecutively it was analyzed by sequencing the exon 2 of the KRAS gene, , by means of PCR amplification from previously extracted cancer tumor DNA, using the following sense primer (SEQ ID NO. 15): 5'-[sequence]-3' and anti-sense primer (SEQ ID NO. 16): 5'-[sequence]-3'. After the purification using the Qiagen extraction kit, the PCR products were sequenced using the Big Dye Terminator Kit V3.1 (Applied Biosystems, Foster City, CA, U.S.) and an ABI Prism 377 or 3100 DNA sequencer (Applied Biosystems). The presence of a heterozygous mutation in the KRAS gene in cancer tumor cells of the cultures was defined as the appearance of a mutant peak of a height of at least a third of the wild type. All the sequence analysis were executed at least twice in two independent PCR.
(§6) The percentages of inhibition are expressed in percentage of variation in relation to control ± standard deviation.

Non Hodgkin Lymphoma B = assay: Inhibition of primary tumor cell cultures (48 hours) vs NK1 receptor immunostaining (Example 1); assay type: cell-based; conditions: Homo sapiens, 1 micromolar, read-out: Percentage of inhibition of cell cultures
Protocol: as §1, §2, §3

[2] = tested on: Lung carcinoma (non small cell type); assay: as above; assay type: cell-based; conditions: Homo sapiens, 1 micromolar, read-out: Percentage of inhibition of cell cultures
Protocol: as §1, §2, §3

Neuroblastoma = assay: as above; assay type: cell-based; conditions: Homo sapiens, 1 micromolar, read-out: Percentage of inhibition of cell cultures
Protocol: as §1, §2, §3

[3] = tested on: Non Hodgkin Lymphoma T (diffuse T cell lymphoma); assay: Inhibition of primary tumor cell cultures vs Kras mutation (Example 2); assay type: cell-based, human; conditions: Homo sapiens, T-cell, Cases with Kras mutated; 100 micromolar; read-out: Percentage of inhibition of cell cultures
Protocol: as §1, §4, §5, §6

Myeloma = assay: Inhibition of primary tumor cell cultures (48 hours) vs NK1 receptor immunostaining (Example 1); assay type: cell-based; conditions: Homo sapiens, 1 micromolar, read-out: Percentage of inhibition of cell cultures
Protocol: as §1, §2, §3

[4] = tested on: human primary tumor cells; assay: Inhibition of primary tumor cell cultures vs absence or presence of ERK  protein (Example 3; tumor type per table line); assay type: cell-based; conditions: Non Hodgkin Lymphoma T (diffuse T cell lymphoma), 100 micromolar
Protocol: (§7) Cell cultures. […] Briefly, small pieces of the tumors were digested into a hyaluronidase solution (Sigma-Aldrich, USA) at a concentration of 1 mg/ml during 15 minutes at 37°C, and then they were treated with 6 mg/ml of collagenase type IV (Invitrogen) during 2 hours at 37°C. Consecutively, cells were washed, and resuspended in the DMEM culture medium with high concentration of glucose (Dulbecco's Modified Eagle's Medium, Invitrogen) supplemented with 1% of antibiotics-antimycotics (Invitrogen) and with 1% of sodium pyruvate (Invitrogen), and the cells were seeded in culture slides at a concentration of 10.000 cells per square centimeter. When cells reached confluence, the adherent cells were separated using sterile trypsin at 0,5% (Invitrogen) and they were used among passages 3 and 9. For the assays shown next, tumor cells were seeded on slides at a concentration of 25.000 cells per well. A total of 6 wells containing the tumor cells were used as survival control. […] All the cultures were kept during 48 hours and later on recollected for their analysis.
Consecutively, the cells were placed in cultures in the presence of several antagonists of the NK1 receptor.
In each case it was determined the presence or absence of the downstream effector in the MAP Kinases ERK pathway.
To determine the presence of the ERK protein, it was performed a Western Blot technique, using as primary antibody: Phospho-p44/42 MAPK (Erk1/2) (Thr202/Tyr204) (D13.14.4E) XP® Rabbit mAb (4370, Cell Signalling). To determine the presence of the MEK protein, it was performed the Western Blot technique, using as primary antibody Phospho-MEK1/2 (Ser217/221) (9121, Cell Signalling).
The antibody against NK1 receptor (Table 21) was used at 1/50 concentration. The percentages of inhibition are expressed in percentages of variation in relation to control ± standard deviation.

Pancreatic carcinoma = assay: Inhibition of primary tumor cell cultures (48 hours) vs NK1 receptor immunostaining (Example 1); assay type: cell-based; conditions: Homo sapiens, 1 micromolar, read-out: Percentage of inhibition of cell cultures
Protocol: as §1, §2, §3

[5] = tested on: Breast carcinoma (ductal adenocarcinoma); assay: Inhibition of primary tumor cell cultures vs Kras mutation (Example 2); assay type: cell-based, human; conditions: Homo sapiens, Cases with Kras mutated; 100 micromolar; read-out: Percentage of inhibition of cell cultures
Protocol: as §7, §4, §5
(§8) The antibody against NK1 receptor (Table 16) was used at 1/50 concentration. The percentages of inhibition are expressed in percentage of variation in relation to control ± standard deviation.

[6] = tested on: Malignant Fibrous Histiocytoma; assay: Inhibition of primary tumor cell cultures (48 hours) vs NK1 receptor immunostaining (Example 1); assay type: cell-based; conditions: Homo sapiens, 1 micromolar, read-out: Percentage of inhibition of cell cultures
Protocol: as §1, §2, §3

[7] = tested on: Thyroid carcinoma (papillary type); assay: as above; assay type: cell-based; conditions: Homo sapiens, 1 micromolar, read-out: Percentage of inhibition of cell cultures
Protocol: as §1, §2, §3

Endometrium carcinoma = assay: Inhibition of primary tumor cell cultures vs Kras mutation (Example 2); assay type: cell-based, human; conditions: Homo sapiens, Cases with Kras mutated; 100 micromolar; read-out: Percentage of inhibition of cell cultures
Protocol: as §7, §4, §5, §8

Prostate carcinoma = assay: cells; conditions: Homo sapiens, 1 micromolar
Protocol: as §1, §2, §3

[8] = tested on: human primary tumor cells; assay: Inhibition of primary tumor cell cultures vs amplification of the gene encoding the NK1 receptor (Example 6; tumor type per table line); assay type: cell-based; conditions: Non Hodgkin Lymphoma T (diffuse T cell lymphoma); Cases with amplification of the gene that encodes for the NK1 receptor; 100 micromolar
[9] = NK1 receptor immunostaining Group 1 (less than 20% of the cells)
[10] = NK1 receptor immunostaining Group 2 (20-80% of the cells)
[11] = NK1 receptor immunostaining Group 3 (more than 80% of the cells)
[12] = NK1 receptor immunostaining Intensity grade 1
[13] = NK1 receptor immunostaining Intensity grade 2
[14] = NK1 receptor immunostaining Intensity grade 3

## C[C@@H](O[C@H]1OCCN(Cc2n[nH]c(=O)[nH]2)[C@H]1c1ccc(F)cc1)c1cc(C(F)(F)F)cc(C(F)(F)F)c1 [Aprepitant]
Leukemia B; [9]
  inhibition at 1 µM: 11 ± 2%
Leukemia B; [10]
  inhibition at 1 µM: 43 ± 4%
Leukemia B; [11]
  inhibition at 1 µM: 95 ± 4%
Leukemia B; [12]
  inhibition at 1 µM: 28 ± 5%
Leukemia B; [13]
  inhibition at 1 µM: 54 ± 5%
Leukemia B; [14]
  inhibition at 1 µM: 95 ± 6%
Breast carcinoma; [9]
  inhibition at 1 µM: 11 ± 1%
Breast carcinoma; [10]
  inhibition at 1 µM: 46 ± 3%
Breast carcinoma; [11]
  inhibition at 1 µM: 94 ± 5%
Breast carcinoma; [12]
  inhibition at 1 µM: 28 ± 6%
Breast carcinoma; [13]
  inhibition at 1 µM: 58 ± 5%
Breast carcinoma; [14]
  inhibition at 1 µM: 95 ± 7%
[1]
  inhibition at 100 µM: 24 ± 3%
Non Hodgkin Lymphoma B; [9]
  inhibition at 1 µM: 10 ± 2%
Non Hodgkin Lymphoma B; [10]
  inhibition at 1 µM: 47 ± 4%
Non Hodgkin Lymphoma B; [11]
  inhibition at 1 µM: 96 ± 5%
Non Hodgkin Lymphoma B; [12]
  inhibition at 1 µM: 27 ± 5%
Non Hodgkin Lymphoma B; [13]
  inhibition at 1 µM: 55 ± 5%
Non Hodgkin Lymphoma B; [14]
  inhibition at 1 µM: 97 ± 6%
[2]; [9]
  inhibition at 1 µM: 9 ± 3%
[2]; [10]
  inhibition at 1 µM: 41 ± 3%
[2]; [11]
  inhibition at 1 µM: 94 ± 7%
[2]; [12]
  inhibition at 1 µM: 28 ± 5%
[2]; [13]
  inhibition at 1 µM: 57 ± 5%
[2]; [14]
  inhibition at 1 µM: 95 ± 3%
Neuroblastoma; [9]
  inhibition at 1 µM: 10 ± 3%
Neuroblastoma; [10]
  inhibition at 1 µM: 44 ± 5%
Neuroblastoma; [11]
  inhibition at 1 µM: 97 ± 5%
Neuroblastoma; [12]
  inhibition at 1 µM: 27 ± 6%
Neuroblastoma; [13]
  inhibition at 1 µM: 57 ± 6%
Neuroblastoma; [14]
  inhibition at 1 µM: 97 ± 5%
[3]
  inhibition at 100 µM: 25 ± 4%
Myeloma; [9]
  inhibition at 1 µM: 11 ± 2%
Myeloma; [10]
  inhibition at 1 µM: 46 ± 5%
Myeloma; [11]
  inhibition at 1 µM: 95 ± 4%
Myeloma; [12]
  inhibition at 1 µM: 28 ± 5%
Myeloma; [13]
  inhibition at 1 µM: 55 ± 3%
Myeloma; [14]
  inhibition at 1 µM: 92 ± 5%
[4]; cases with presence of ERK
  Percentage of inhibition of cell cultures: 94±4 percentage
[4]; cases without presence of ERK
  Percentage of inhibition of cell cultures: 23±3 percentage
Pancreatic carcinoma; [9]
  inhibition at 1 µM: 12 ± 3%
Pancreatic carcinoma; [10]
  inhibition at 1 µM: 47 ± 1%
Pancreatic carcinoma; [11]
  inhibition at 1 µM: 94 ± 6%
Pancreatic carcinoma; [12]
  inhibition at 1 µM: 27 ± 7%
Pancreatic carcinoma; [13]
  inhibition at 1 µM: 56 ± 5%
Pancreatic carcinoma; [14]
  inhibition at 1 µM: 94 ± 3%
[5]
  inhibition at 100 µM: 22 ± 2%
[6]; [9]
  inhibition at 1 µM: 11 ± 2%
[6]; [10]
  inhibition at 1 µM: 47 ± 2%
[6]; [11]
  inhibition at 1 µM: 95 ± 6%
[6]; [12]
  inhibition at 1 µM: 28 ± 7%
[6]; [13]
  inhibition at 1 µM: 56 ± 5%
[6]; [14]
  inhibition at 1 µM: 94 ± 3%
[7]; [9]
  inhibition at 1 µM: 10 ± 3%
[7]; [10]
  inhibition at 1 µM: 47 ± 3%
[7]; [11]
  inhibition at 1 µM: 97 ± 6%
[7]; [12]
  inhibition at 1 µM: 27 ± 6%
[7]; [13]
  inhibition at 1 µM: 56 ± 4%
Endometrium carcinoma
  inhibition at 100 µM: 25 ± 4%
Prostate carcinoma; read-out: Percentage of inhibition of cell cultures, NK1 receptor immunostaining Group 1 (less than 20% of the cells)
  inhibition at 1 µM: 11 ± 3%
Prostate carcinoma; read-out: Percentage of inhibition of cell cultures, NK1 receptor immunostaining Group 2 (20-80% of the cells)
  inhibition at 1 µM: 46 ± 6%
Prostate carcinoma; read-out: Percentage of inhibition of cell cultures, NK1 receptor immunostaining Group 3 (more than 80% of the cells)
  inhibition at 1 µM: 95 ± 5%
Prostate carcinoma; read-out: Percentage of inhibition of cell cultures, NK1 receptor immunostaining Intensity grade 1
  inhibition at 1 µM: 27 ± 5%
Prostate carcinoma; read-out: Percentage of inhibition of cell cultures, NK1 receptor immunostaining Intensity grade 2
  inhibition at 1 µM: 58 ± 6%
Prostate carcinoma; read-out: Percentage of inhibition of cell cultures, NK1 receptor immunostaining Intensity grade 3
  inhibition at 1 µM: 93 ± 7%
[8]
  Percentage of inhibition of cell cultures: 94±7 percentage
